Assay [1] addresses T1, human Cystic Fibrosis Transmembrane Conductance Regulator (CFTR) harboring the ΔF508 mutation (Homo sapiens, UniProt P13569, DEL508-508).
T1 construct: expressed in transfected cells; host or cells: H441 carcinoma line (G418-selected)
The experiment in a line: H441 cell ΔF508-CFTR-HRP cell surface assay (Emax and EC50). The following applies: for Emax: NCI-H441, NA = Not active. It counts as cell-based. Put shortly: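 H441 and 41o- bronchial epithelial cells expressing ΔF508-CFTR with an extracellular-loop-4 HRP tag were treated with a 15-point compound series (24.5–0.001 μM) for two nights, H441 at 27° C, 41o- at 37° C with 0.0005 mg/ml doxycycline. Surface HRP luminescence read; % of maximum VX809 signal and EC50 derived.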

Assay [2] addresses T2, CFTR-mediated transepithelial chloride transport in primary human bronchial epithelial cells from a ΔF508 homozygous CF donor (Homo sapiens, UniProt P13569, DEL508-508).
T2 construct: Primary human bronchial epithelial cells from a ΔF508 homozygous CF donor; host or cells: primary CF-HBE cells, ΔF508 homozygous donor
Put plainly: TECC24 recording of CFTR-mediated transepithelial chloride transport in CF-HBE cells (AUC fold over DMSO). The format is cell-based. To be noted: test agent 10 μM, 48 hours incubation, AUC of forskolin-stimulated IEQ relative to DMSO. The method, boiled down:
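Equivalent Cl⁻ current was derived from transepithelial voltage and resistance, and its AUC from forskolin (10 μM) to CFTRinh-172 (20 μM) was divided by the DMSO AUC. Benzamil 10 μM blocked ENaC. Cells were ΔF508-homozygous primary bronchial epithelia pretreated 48 h at 36.5 °C in IL-13 medium.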

22 compounds from patent US12630498B2 (Genzyme Corporation, priority 2019, dated 2026) can be followed below.

pEC50: −log10 of the molar value.

Usually pEC50 stands for the negative decadic logarithm of the EC50, by convention in mol/L. A low value points to a large EC50. In general, Emax refers to the size of the effect at its maximum, as opposed to the concentration needed.

T2 sequence (P13569 with tags, fused parts or gaps DEL508-508): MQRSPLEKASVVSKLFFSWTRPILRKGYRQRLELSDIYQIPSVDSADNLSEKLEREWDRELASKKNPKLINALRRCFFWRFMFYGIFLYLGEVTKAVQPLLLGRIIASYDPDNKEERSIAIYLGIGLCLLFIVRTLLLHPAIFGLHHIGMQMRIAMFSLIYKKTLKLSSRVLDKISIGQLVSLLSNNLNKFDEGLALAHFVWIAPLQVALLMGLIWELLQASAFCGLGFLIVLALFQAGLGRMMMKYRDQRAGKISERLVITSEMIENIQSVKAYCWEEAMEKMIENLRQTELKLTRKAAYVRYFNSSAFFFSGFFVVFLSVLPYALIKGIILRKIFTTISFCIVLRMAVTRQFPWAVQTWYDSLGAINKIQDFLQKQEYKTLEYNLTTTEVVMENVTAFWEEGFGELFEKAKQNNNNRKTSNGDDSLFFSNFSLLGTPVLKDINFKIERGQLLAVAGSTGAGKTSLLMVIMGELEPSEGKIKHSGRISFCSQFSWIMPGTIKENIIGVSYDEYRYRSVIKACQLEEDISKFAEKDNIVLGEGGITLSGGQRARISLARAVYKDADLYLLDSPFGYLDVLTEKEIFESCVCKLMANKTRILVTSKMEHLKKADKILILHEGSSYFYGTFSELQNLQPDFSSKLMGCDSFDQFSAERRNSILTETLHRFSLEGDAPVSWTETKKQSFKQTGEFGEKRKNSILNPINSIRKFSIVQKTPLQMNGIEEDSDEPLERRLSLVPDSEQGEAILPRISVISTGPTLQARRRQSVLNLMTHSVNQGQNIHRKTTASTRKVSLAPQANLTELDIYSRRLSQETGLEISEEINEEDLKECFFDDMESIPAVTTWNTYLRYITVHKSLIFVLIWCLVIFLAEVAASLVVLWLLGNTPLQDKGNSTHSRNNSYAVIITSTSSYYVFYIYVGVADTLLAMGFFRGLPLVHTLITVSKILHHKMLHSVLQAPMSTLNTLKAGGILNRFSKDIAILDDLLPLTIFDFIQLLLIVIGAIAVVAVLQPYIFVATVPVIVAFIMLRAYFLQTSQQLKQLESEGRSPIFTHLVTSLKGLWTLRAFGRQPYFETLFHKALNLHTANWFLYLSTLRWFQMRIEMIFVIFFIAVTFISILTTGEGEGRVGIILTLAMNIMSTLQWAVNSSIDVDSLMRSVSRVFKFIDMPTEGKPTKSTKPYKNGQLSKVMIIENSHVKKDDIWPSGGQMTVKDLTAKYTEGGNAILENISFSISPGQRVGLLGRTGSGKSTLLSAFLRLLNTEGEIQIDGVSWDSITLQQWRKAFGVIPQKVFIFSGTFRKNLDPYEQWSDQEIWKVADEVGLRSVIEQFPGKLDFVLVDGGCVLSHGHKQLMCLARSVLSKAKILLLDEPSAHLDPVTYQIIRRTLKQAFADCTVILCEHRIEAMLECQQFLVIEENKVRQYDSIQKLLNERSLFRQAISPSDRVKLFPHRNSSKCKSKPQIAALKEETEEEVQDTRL
T1 sequence (P13569 with tags, fused parts or gaps DEL508-508): as above

In assay [1], `CCC(C)(C)C(NC(=O)c1ccc2ccc(C)cc2c1OCc1ccc(OC(F)(F)F)cc1)C(=O)O` (stereo not drawn) [Example 276, 3,3-dimethyl-2-(7-methyl-1-((4-(trifluoromethoxy)benzyl)oxy)-2-naphthamido)pentanoic Acid] gave a pEC50 of 6.52 and an Emax of 309%. Besides, the “TECC24 AUC fold over DMSO @10 μM” value in assay [2] is listed as “A (“A” refers to AUC @10 uM >6)”.
For `CCC(C)(C)[C@H](NC(=O)c1ccc2ccc(Cl)cc2c1OCc1ccc(OC(F)(F)F)cc1)C(=O)O` [Example 277, (S)-2-(7-chloro-1-((4-(trifluoromethoxy)benzyl)oxy)-2-naphthamido)-3,3-dimethylpentanoic Acid], in that order: 7.00, 186% and “A (“A” refers to AUC @10 uM >6)”.
The corresponding values for `Cc1cc2c(OCc3ccc(C(F)(F)F)cc3)c(C(=O)N[C@H](C(=O)O)C(C)(C)C)ccc2cc1F` [Example 278, (S)-2-(6-fluoro-7-methyl-1-((4-(trifluoromethyl)benzyl)oxy)-2-naphthamido)-3,3-dimethylbutanoic Acid] are 6.70, 248% and “A (“A” refers to AUC @10 uM >6)”.
The corresponding values for `Cc1ccc2ccc(C(=O)N[C@H](C(=O)O)C(C)(C)C)c(OCc3ccc(C(F)(F)F)cc3)c2c1` [Example 279, (2S)-3,3-dimethyl-2-[[7-methyl-1-[[4-(trifluoromethyl)phenyl]methoxy]naphthalene-2-carbonyl]amino]butanoic Acid] are 7.00, 348% and “A (“A” refers to AUC @10 uM >6)”.
As for `CCC(C)(C)[C@H](NC(=O)c1ccc2ccc(C)cc2c1OCc1ccc(OC(F)(F)F)cc1)C(=O)O` [Example 280, (S)-3,3-dimethyl-2-(7-methyl-1-((4-(trifluoromethoxy)benzyl)oxy)-2-naphthamido)pentanoic Acid], in assay [1], the pEC50 is 6.52 and the maximal response (Emax) is 309%. Further, in assay [2], the “TECC24 AUC fold over DMSO @10 μM” value is on record as “A (“A” refers to AUC @10 uM >6)”.
For `CCC(C)(C)[C@H](NC(=O)c1ccc2ccc(C)cc2c1OCC1CCCCC1)C(=O)O` [Example 281, (S)-2-(1-(cyclohexylmethoxy)-7-methyl-2-naphthamido)-3,3-dimethylpentanoic Acid], in that order: 6.15, 246% and “A (“A” refers to AUC @10 uM >6)”.
The corresponding values for `Cc1ccc2ccc(C(=O)N[C@H](C(=O)O)C(C)(C)CF)c(OCC3CCCCC3)c2c1` [Example 282, (S)-2-(1-(cyclohexylmethoxy)-7-methyl-2-naphthamido)-4-fluoro-3,3-dimethylbutanoic Acid] are 6.15, 285% and “A (“A” refers to AUC @10 uM >6)”.
For `CCC(C)(C)[C@H](NC(=O)c1ccc2ccc(Cl)cc2c1OCc1ccc(C(F)(F)F)cc1)C(=O)O` [Example 283, (S)-2-(7-chloro-1-((4-(trifluoromethyl)benzyl)oxy)-2-naphthamido)-3,3-dimethylpentanoic Acid], in that order: 6.70, 313% and “A (“A” refers to AUC @10 uM >6)”.
For `Cc1ccc2ccc(C(=O)N[C@@H](C(=O)O)C(C)(C)C)c(OCc3ccc(C(F)(F)F)cc3)c2c1` [Example 284, (R)-3,3-dimethyl-2-(7-methyl-1-((4-(trifluoromethyl)benzyl)oxy)-2-naphthamido) butanoic Acid], in assay [1], the pEC50 was 6.30 and the Emax came to 173%. The “TECC24 AUC fold over DMSO @10 μM” value in assay [2] is listed as “C (“C” refers to AUC @10 uM <4)”.
The corresponding values for `CC(C)(C)[C@@H](NC(=O)c1ccc2ccc(Cl)cc2c1OCc1ccc(OC(F)(F)F)cc1)C(=O)O` [Example 285, (R)-2-(7-chloro-1-((4-(trifluoromethoxy)benzyl)oxy)-2-naphthamido)-3,3-dimethylbutanoic Acid] are 6.10, 99.1% and “C (“C” refers to AUC @10 uM <4)”.
Take `CC(C)(C)[C@H](NC(=O)c1ccc2ccc(Cl)cc2c1OCc1ccc(C(F)(F)F)cc1)C(=O)O` [Example 286, (S)-2-(7-chloro-1-((4-(trifluoromethyl)benzyl)oxy)-2-naphthamido)-3,3-dimethylbutanoic Acid]: in assay [1], the pEC50 is 7.00 and the Emax amounted to 353%. For the same compound, the “TECC24 AUC fold over DMSO @10 μM” value in assay [2] is on record as “A (“A” refers to AUC @10 uM >6)”.
For `CC(C)(C)[C@@H](NC(=O)c1ccc2ccc(C(F)(F)F)cc2c1OCc1ccc(OC(F)(F)F)cc1)C(=O)O` [Example 287, (R)-3,3-dimethyl-2-(1-((4-(trifluoromethoxy)benzyl)oxy)-7-(trifluoromethyl)-2-naphthamido)butanoic Acid], in that order: 6.52, 57.1% and “C (“C” refers to AUC @10 uM <4)”.
For `CCC(C)(C)[C@H](NC(=O)c1ccc2ccc(C)cc2c1OCc1ccc(C(F)(F)F)cc1)C(=O)O` [Example 288, (S)-3,3-dimethyl-2-(7-methyl-1-((4-(trifluoromethyl)benzyl)oxy)-2-naphthamido)pentanoic Acid], in that order: 7.00, 404% and “A (“A” refers to AUC @10 uM >6)”.
For the compound `CCCC(C)(CC)[C@H](NC(=O)c1ccc2ccc(F)cc2c1OCc1ccc(C(F)(F)F)cc1)C(=O)O` (stereo partly drawn) [Example 291, (2S)-3-ethyl-2-(7-fluoro-1-((4-(trifluoromethyl)benzyl)oxy)-2-naphthamido)-3-methylhexanoic Acid], in assay [1], the negative logarithm of the EC50 (pEC50) was 6.40 and the Emax worked out at 260%. The “TECC24 AUC fold over DMSO @10 μM” value in assay [2] is given as “A (“A” refers to AUC @10 uM >6)”.
Take `CCC(C)(C)[C@H](NC(=O)c1ccc2ccc(C)cc2c1OCCCC(C)C)C(=O)O` [Example 294, 3,3-Dimethyl-2-{[7-methyl-1-(4-methyl-pentyloxy)-naphthalene-2-carbonyl]-amino}-pentanoic Acid]: in assay [1], the pEC50 was 6.00 and the Emax is 281%. In addition, the “TECC24 AUC fold over DMSO @10 μM” value in assay [2] is “A (“A” refers to AUC @10 uM >6)”.
For `CCC(C)(C)[C@H](NC(=O)c1ccc2ccc(C(F)(F)F)cc2c1OCc1ccc(C(F)(F)F)cc1)C(=O)O` [Example 295, (S)-3,3-dimethyl-2-(7-(trifluoromethyl)-1-((4-(trifluoromethyl)benzyl)oxy)-2-naphthamido)pentanoic Acid], in that order: 7.00, 229% and “A (“A” refers to AUC @10 uM >6)”.
In assay [1], `CCC(C)(C)[C@H](NC(=O)c1ccc2ccc(C(F)(F)F)cc2c1OCc1ccc(OC(F)(F)F)cc1)C(=O)O` [Example 296, (S)-3,3-dimethyl-2-(1-((4-(trifluoromethoxy)benzyl)oxy)-7-(trifluoromethyl)-2-naphthamido)pentanoic Acid] had a pEC50 of 6.70 and a maximum response (Emax) of 186%. In addition, the “TECC24 AUC fold over DMSO @10 μM” value in assay [2] is reported as “A (“A” refers to AUC @10 uM >6)”.
For `CC1([C@H](NC(=O)c2ccc3ccc(C(F)(F)F)cc3c2OCc2ccc(OC(F)(F)F)cc2)C(=O)O)CC1` [Example 297, (S)-2-(1-methylcyclopropyl)-2-(1-((4-(trifluoromethoxy)benzyl)oxy)-7-(trifluoromethyl)-2-naphthamido)acetic Acid], in assay [1], the pEC50 was 6.30 and the Emax is 137%. In addition, the “TECC24 AUC fold over DMSO @10 μM” value in assay [2] was “A (“A” refers to AUC @10 uM >6)”.
The corresponding values for `CC1([C@H](NC(=O)c2ccc3ccc(C(F)(F)F)cc3c2OCc2ccc(C(F)(F)F)cc2)C(=O)O)CCC1` [Example 299, (S)-2-(1-methylcyclobutyl)-2-(7-(trifluoromethyl)-1-((4-(trifluoromethyl)benzyl)oxy)-2-naphthamido)acetic Acid] are 6.70, 227% and “A (“A” refers to AUC @10 uM >6)”.
For `CC1([C@H](NC(=O)c2ccc3ccc(Cl)cc3c2OCc2ccc(C(F)(F)F)cc2)C(=O)O)CCC1` [Example 300, (S)-2-(7-chloro-1-((4-(trifluoromethyl)benzyl)oxy)-2-naphthamido)-2-(1-methylcyclobutyl)acetic Acid], in that order: 6.70, 232% and “A (“A” refers to AUC @10 uM >6)”.
As for `CC1([C@H](NC(=O)c2ccc3ccc(C(F)(F)F)cc3c2OCc2ccc(C(F)(F)F)cc2)C(=O)O)CCCC1` [Example 301, (S)-2-(1-methylcyclopentyl)-2-(7-(trifluoromethyl)-1-((4-(trifluoromethyl)benzyl)oxy)-2-naphthamido)acetic Acid], in assay [1], the negative logarithm of the EC50 (pEC50) was 7.00 and the Emax was found to be 217%. Also, the “TECC24 AUC fold over DMSO @10 μM” value in assay [2] is listed as “A (“A” refers to AUC @10 uM >6)”.
In the case of `CC1([C@H](NC(=O)c2ccc3ccc(Cl)cc3c2OCc2ccc(C(F)(F)F)cc2)C(=O)O)CCCC1` [Example 302, (S)-2-(7-chloro-1-((4-(trifluoromethyl)benzyl)oxy)-2-naphthamido)-2-(1-methylcyclopentyl)acetic Acid], in assay [1], the pEC50 is 7.00 and the Emax came to 248%. In addition, the “TECC24 AUC fold over DMSO @10 μM” value in assay [2] is reported as “A (“A” refers to AUC @10 uM >6)”.
